Reference: patent US11759462B2, “Spirocyclic compounds as tryptophan hydroxylase inhibitors” (priority 2013, dated 2023)
Where two headings read alike, the source gives them in different places.

Columns and labels:
[1] = molecular target: T1, Recombinant human TPH1 (MBP tagged) (Homo sapiens, UniProt P17752); test: TPH1 in vitro inhibition assay (kinetic fluorescence); type: biochemical
T1 construct: cloning full length human TPH1 cDNA in to a bacterial pMAL-c5E expression vector; made in house; host or cells: E. coli BL21 (DE3)
T1 sequence (P17752 1-444): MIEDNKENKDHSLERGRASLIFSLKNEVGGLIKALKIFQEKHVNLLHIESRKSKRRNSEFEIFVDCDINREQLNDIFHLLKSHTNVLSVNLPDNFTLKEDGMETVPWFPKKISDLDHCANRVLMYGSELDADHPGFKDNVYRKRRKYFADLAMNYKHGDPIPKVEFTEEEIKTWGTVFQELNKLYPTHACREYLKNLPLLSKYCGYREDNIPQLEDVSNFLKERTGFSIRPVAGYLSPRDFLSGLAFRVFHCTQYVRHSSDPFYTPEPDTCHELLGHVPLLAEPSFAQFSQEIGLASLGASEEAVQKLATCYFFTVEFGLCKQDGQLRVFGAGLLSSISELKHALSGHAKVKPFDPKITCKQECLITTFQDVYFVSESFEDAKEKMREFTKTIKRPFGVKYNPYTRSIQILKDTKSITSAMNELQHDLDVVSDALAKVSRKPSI
Summary of the method: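 Final mix: 15 nM MBP-TPH1, 30 μM Trp, 36 μM 6-methyltetrahydropterin, 25 μM ferrous ammonium sulfate, 50 mM MES pH 7.1, 1% DMSO, room temperature.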

[2] = system: jejunal mucosal 5-HT in mice (C57 BL6); test: Intestinal 5-HT depletion assay (Example B, single 150 mg/kg oral dose); type: in vivo, mouse; settings: one day after oral administration of a single 150 mg/kg dose, P-value class (ANOVA)
Description: The efficacy of the TPH1 inhibitors of the invention was assessed for the ability to decrease intestinal serotonin concentration in mice. Mice (C57 BL6) were administered a single 150 mg/kg dose of test article by oral gavage. Each animal was euthanized by exsanguination under isoflurane anesthesia. Jejunal intestinal mucosa was isolated and homogenized in 300 μL of a buffer containing 0.3M trichloroacetic acid, 0.1M sodium acetate, 10 mM EDTA, 20 mM sodium bisulfate and 50 mM ascorbic acid. Following centrifugation the 5-HT levels in the supernatants were measured by HPLC. The remaining mucosal pellet was solubilized overnight at 37° C. in a 0.1% sodium dodecyl sulfate buffer in 0.1N NaOH followed by determination of protein concentrations using a BCA protein assay (Pierce, Rockford, Ill. 5-HT levels were normalized to protein and data were expressed as mean percent reduction of mucosal 5-HT levels relative to vehicle control SEM (percent 5-HT reduction). All animal studies were carried out with protocols approved by the Institutional Animal Care and Use Committee.
P-values, indicating statistical significance of the data (ANOVA) are provided in the table: * refers to P<0.05, ** refers to P<0.01, *** refers to P<0.005, and refers to P<0.0005.

[3] = read-out: TPH1 Range (TPH1 inhibition IC50)
[4] = TPH1 Range (TPH1 inhibition IC50)

| Compound | IC50 [1, 3] [nM] | Efficacy (statistical significance of reduction of mucosal 5-HT concentrations relative to vehicle) [2] | IC50 [1, 4] [nM] |
| --- | --- | --- | --- |
| Cc1ccn(-c2cc(C(=O)O)ccc2[C@@H](Oc2cc(N3CCC4(CC3)CN[C@H](C(=O)O)C4)nc(N)n2)C(F)(F)F)n1 [Example 16, (S)-8-(2-amino-6-((R)-1-(4-carboxy-2-(3-methyl-H-pyrazol-1-yl)phenyl)-2,2,2-trifluoroethoxy)pyrimidin-4-yl)-2,8-diazaspiro[4.5]decane-3-carboxylic acid] | 300 to 3000 | ** (** refers to P<0.01) | – |
| (3S)-8-(2-amino-6-(2,2,2-trifluoro-1-(3′-fluoro- [1,1′-biphenyl]-4-yl)ethoxy)pyrimidin-4-yl)-2,8- diazaspiro[4.5]decane-3-carboxylic acid [Example 55ak] | 300 to 3000 | ** (** refers to P<0.01) | – |
| Nc1nc(O[C@H](c2ccc(Cl)cc2-c2ccc(Cl)s2)C(F)(F)F)cc(N2CCC3(CC2)CN[C@H](C(=O)O)C3)n1 [Example 34s, (S)-8-(2-amino-6-((R)-1-(4-chloro-2-(5-chlorothiophen-2-yl)phenyl)-2,2,2-trifluoroethoxy)pyrimidin-4-yl)-2,8-diazaspiro[4.5]decane-3-carboxylic acid] | 50 to 300 | ** (** refers to P<0.01) | – |
| Nc1nc(O[C@H](c2ccc(-c3ccc4cnccc4c3)cc2)C(F)(F)F)cc(N2CCC3(CC2)CN[C@H](C(=O)O)C3)n1 [Example 55bd, (S)-8-(2-amino-6-((R)-2,2,2-trifluoro-1-(4-(isoquinolin-6-yl)phenyl)ethoxy)pyrimidin-4-yl)-2,8-diazaspiro[4.5]decane-3-carboxylic acid] | – | *** (*** refers to P<0.005) | < 50 |
| CC(=O)NCCc1ccc(-c2ccc([C@@H](Oc3cc(N4CCC5(CC4)CN[C@H](C(=O)O)C5)nc(N)n3)C(F)(F)F)c(-n3ccc(C)n3)c2)cc1 [Example 1y, (S)-8-(6-((R)-1-(4′-(2-acetamidoethyl)-3-(3-methyl-1H-pyrazol-1-yl)-[1,1′-biphenyl]-4-yl)-2,2,2-trifluoroethoxy)-2-aminopyrimidin-4-yl)-2,8-diazaspiro[4.5]decane-3-carboxylic acid] | < 50 | ** (** refers to P<0.01) | – |
| COc1cccc(-c2ccc(C(Oc3cc(N4CCC5(CC4)CN[C@H](C(=O)O)C5)nc(N)n3)C(F)(F)F)cc2)c1 (stereo partly drawn) [Example 55al, (3S)-8-(2-amino-6-(2,2,2-trifluoro-1-(3′-methoxy-[1,1′-biphenyl]-4-yl)ethoxy)pyrimidin-4-yl)-2,8-diazaspiro[4.5]decane-3-carboxylic acid] | 50 to 300 | * (* refers to P<0.05) | – |
| Nc1nc(O[C@H](c2ccc(-c3cccc(F)c3)cc2)C(F)(F)F)cc(N2CCC3(CC2)CN[C@H](C(=O)O)C3)n1 [Example 55am, (S)-8-(2-amino-6-((R)-2,2,2-trifluoro-1-(3′-fluoro-[1,1′-biphenyl]-4-yl)ethoxy)pyrimidin-4-yl)-2,8-diazaspiro[4.5]decane-3-carboxylic acid] | 50 to 300 | *** (*** refers to P<0.005) | – |
| Nc1nc(O[C@H](c2ccc(-c3ccc4ncsc4c3)cc2)C(F)(F)F)cc(N2CCC3(CC2)CN[C@H](C(=O)O)C3)n1 [Example 55k, (S)-8-(2-amino-6-((R)-1-(4-(benzo[d]thiazol-6-yl)phenyl)-2,2,2-trifluoroethoxy)pyrimidin-4-yl)-2,8-diazaspiro[4.5]decane-3-carboxylic acid] | 50 to 300 | * (* refers to P<0.05) | – |
| CCCc1ccc([C@@H](Oc2cc(N3CCC4(CC3)CN[C@H](C(=O)O)C4)nc(N)n2)C(F)(F)F)c(-n2ccc(C)n2)c1 [Example 12b, (S)-8-(2-amino-6-((R)-2,2,2-trifluoro-1-(2-(3-methyl-1H-pyrazol-1-yl)-4-propylphenyl)ethoxy)pyrimidin-4-yl)-2,8-diazaspiro[4.5]decane-3-carboxylic acid] | < 50 | * (* refers to P<0.05) | – |
| Nc1nc(O[C@H](c2ccc(Cl)cc2-c2cccc(S(N)(=O)=O)c2)C(F)(F)F)cc(N2CCC3(CC2)CN[C@H](C(=O)O)C3)n1 [Example 34u, (S)-8-(2-amino-6-((R)-1-(5-chloro-3′-sulfamoyl-[1,1′-biphenyl]-2-yl)-2,2,2-trifluoroethoxy)pyrimidin-4-yl)-2,8-diazaspiro[4.5]decane-3-carboxylic acid] | – | * (* refers to P<0.05) | < 50 |
| COc1ccc([C@@H](Oc2cc(N3CCC4(CC3)CNC(C(=O)O)C4)nc(N)n2)C(F)(F)F)c(-n2ccc(C)n2)c1 (stereo partly drawn) [Example 10j, 8-(2-amino-6-((R)-2,2,2-trifluoro-1-(4-methoxy-2-(3-methyl-1H-pyrazol-1-yl)phenyl)ethoxy)pyrimidin-4-yl)-2,8-diazaspiro[4.5]decane-3-carboxylic acid] | 50 to 300 | **** (and refers to P<0.0005) | – |
| CCCCCOC(=O)[C@@H]1CC2(CCN(c3cc(O[C@H](c4ccc(Cl)cc4-n4ccc(C)n4)C(F)(F)F)nc(N)n3)CC2)CN1 [Example 64c, (S)-pentyl 8-(2-amino-6-((R)-1-(4-chloro-2-(3-methyl-1H-pyrazol-1-yl)phenyl)-2,2,2-trifluoroethoxy)pyrimidin-4-yl)-2,8-diazaspiro[4.5]decane-3-carboxylate] | – | **** (and refers to P<0.0005) | – |

Continued, in another order:

| IC50 [1, 3] [nM] | Compound | Efficacy (statistical significance of reduction of mucosal 5-HT concentrations relative to vehicle) [2] | IC50 [1, 4] [nM] |
| --- | --- | --- | --- |
| 50 to 300 | COc1cccc(-c2ccc([C@@H](Oc3cc(N4CCC5(CC4)CN[C@H](C(=O)O)C5)nc(N)n3)C(F)(F)F)cc2)c1 [Example 55an, (S)-8-(2-amino-6-((R)-2,2,2-trifluoro-1-(3′-methoxy-[1,1′-biphenyl]-4-yl)ethoxy)pyrimidin-4-yl)-2,8-diazaspiro[4.5]decane-3-carboxylic acid] | *** (*** refers to P<0.005) | – |
| < 50 | Cc1ccn(-c2cc(-c3ccc4c(C)n[nH]c4c3)ccc2[C@@H](Oc2cc(N3CCC4(CC3)CN[C@H](C(=O)O)C4)nc(N)n2)C(F)(F)F)n1 [Example 1o, (S)-8-(2-amino-6-((R)-2,2,2-trifluoro-1-(4-(3-methyl-1H-indazol-6-yl)-2-(3-methyl-1H-pyrazol-1-yl)phenyl)ethoxy)pyrimidin-4-yl)-2,8-diazaspiro[4.5]decane-3-carboxylic acid] | ** (** refers to P<0.01) | – |
| < 50 | Cc1ccn(-c2cc(-c3ccc(C(C)(C)C)cc3)ccc2[C@@H](Oc2cc(N3CCC4(CC3)CN[C@H](C(=O)O)C4)nc(N)n2)C(F)(F)F)n1 [Example 1p, (S)-8-(2-amino-6-((R)-1-(4′-(tert-butyl)-3-(3-methyl-1H-pyrazol-1-yl)-[1,1′-biphenyl]-4-yl)-2,2,2-trifluoroethoxy)pyrimidin-4-yl)-2,8-diazaspiro[4.5]decane-3-carboxylic acid] | ** (** refers to P<0.01) | – |
| < 50 | CCCCc1ccc(-n2ccc(C)n2)c([C@@H](Oc2cc(N3CCC4(CC3)CN[C@H](C(=O)O)C4)nc(N)n2)C(F)(F)F)c1 [Example 22c, (S)-8-(2-amino-6-((R)-1-(5-butyl-2-(3-methyl-1H-pyrazol-1-yl)phenyl)-2,2,2-trifluoroethoxy)pyrimidin-4-yl)-2,8-diazaspiro[4.5]decane-3-carboxylic acid] | * (* refers to P<0.05) | – |
| 50 to 300 | Cc1ccc([C@@H](Oc2cc(N3CCC4(CC3)CN[C@H](C(=O)O)C4)nc(N)n2)C(F)(F)F)c(-n2ccc(C)n2)n1 [Example 11, (S)-8-(2-amino-6-((R)-2,2,2-trifluoro-1-(6-methyl-2-(3-methyl-1H-pyrazol-1-yl)pyridin-3-yl)ethoxy)pyrimidin-4-yl)-2,8-diazaspiro[4.5]decane-3-carboxylic acid] | **** (and refers to P<0.0005) | – |
